Values quoted from earlier work, collected in patent US20230000899A1, “ALGINATE, POLYLYSINE, AND SEED PRESERVATIVE NUTRITIONAL PRODUCT AND DIGESTIVE AID” (Reflux Gourmet LLC, priority 2021, published 2023).

Test system: laboratory mice
Details: certain laboratory mice; administered in high concentrations

Oc1ccc(C=Cc2cc(O)cc(O)c2)cc1 [resveratrol]
extension of life span: up to 50%
